Solubility data for one substance are collected here from patent publication US12202849B2, “Crystalline forms of tenofovir alafenamide” (Gilead Sciences, Inc., priority 2017, dated 2025).

The conditions of the data set: deionized water, approximately 22° C., room temperature.

Procedure: In a vial that contains pre-weighed amount of solid, deionized water was added in small increments at approximately 22° C. The solid/liquid mixture was agitated by a vortex mixer and held at room temperature. Continued to add deionized water and repeated the mixing until the solid was fully dissolved.

As a reminder, the Solubility is the concentration that dissolves in the medium under given conditions. Read a low Solubility as a poorly soluble substance. As to “tenofovir alafenamide hemifumarate [TAF Hemifumarate]”, the Solubility is on record as 20 mg/mL.
